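The compound was tested at five concentrations on cells cultured in 96-well plates, with a 48-hour exposure period. TGI: total growth inhibition.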
Columns and labels:
Assay in all cases: NCI-60 cell line screen, 48 h
NCI-H23 lung = tested on: NCI-H23 lung
A549 NSCLC = tested on: A549 NSCLC
SN12C renal = tested on: SN12C renal
DMS 273 small cell lung = tested on: DMS 273 small cell lung
LOX IMVI melanoma = tested on: LOX IMVI melanoma
NCI-H522 lung = tested on: NCI-H522 lung
SF-539 CNS = tested on: SF-539 CNS
SNB-75 CNS = tested on: SNB-75 CNS
786-0 renal = tested on: 786-0 renal
SNB-78 CNS = tested on: SNB-78 CNS
SW-620 colon = tested on: SW-620 colon
HOP-62 NSCLC = tested on: HOP-62 NSCLC
SF-295 CNS = tested on: SF-295 CNS
HOP-92 NSCLC = tested on: HOP-92 NSCLC
M14 melanoma = tested on: M14 melanoma
U251 CNS = tested on: U251 CNS
OVCAR-8 ovarian = tested on: OVCAR-8 ovarian
OVCAR-3 ovarian = tested on: OVCAR-3 ovarian
UO-31 renal = tested on: UO-31 renal
SR leukemia = tested on: SR leukemia
HCC-2998 colon = tested on: HCC-2998 colon
HCT-116 colon = tested on: HCT-116 colon
SNB-19 CNS = tested on: SNB-19 CNS
COLO 205 colon = tested on: COLO 205 colon
HT29 colon = tested on: HT29 colon
KM12 colon = tested on: KM12 colon
SF-268 CNS = tested on: SF-268 CNS
DLD-1 colon = tested on: DLD-1 colon
OVCAR-4 ovarian = tested on: OVCAR-4 ovarian
DMS 114 small cell lung = tested on: DMS 114 small cell lung
NCI-H460 lung = tested on: NCI-H460 lung
KM20L2 colon = tested on: KM20L2 colon
HL-60(TB) leukemia = tested on: HL-60(TB) leukemia
CAKI-1 renal = tested on: CAKI-1 renal
LXFL 529 NSCLC = tested on: LXFL 529 NSCLC
SK-MEL-2 melanoma = tested on: SK-MEL-2 melanoma
UACC-257 melanoma = tested on: UACC-257 melanoma
OVCAR-5 ovarian = tested on: OVCAR-5 ovarian
CCRF-CEM leukemia = tested on: CCRF-CEM leukemia
SK-OV-3 ovarian = tested on: SK-OV-3 ovarian
MALME-3M melanoma = tested on: MALME-3M melanoma
M19-MEL melanoma = tested on: M19-MEL melanoma
SK-MEL-5 melanoma = tested on: SK-MEL-5 melanoma
HCT-15 colon = tested on: HCT-15 colon
EKVX NSCLC = tested on: EKVX NSCLC
SK-MEL-28 melanoma = tested on: SK-MEL-28 melanoma
HOP-18 NSCLC = tested on: HOP-18 NSCLC
NCI-H226 lung = tested on: NCI-H226 lung
XF 498 CNS = tested on: XF 498 CNS
ACHN renal = tested on: ACHN renal
IGROV1 ovarian = tested on: IGROV1 ovarian
K-562 leukemia = tested on: K-562 leukemia
UACC-62 melanoma = tested on: UACC-62 melanoma
MOLT-4 leukemia = tested on: MOLT-4 leukemia
TK-10 renal = tested on: TK-10 renal
A498 renal = tested on: A498 renal
RPMI-8226 leukemia = tested on: RPMI-8226 leukemia
RXF 393 renal = tested on: RXF 393 renal
RXF-631 renal = tested on: RXF-631 renal

In the case of `O/N=C(\c1ccccc1)N1CCCCC1`, the TGI (NCI-H23 lung) is reported as greater than 100 µM, the TGI (A549 NSCLC) is reported as greater than 100 µM and the TGI (SN12C renal) is reported as greater than 100 µM. The TGI (DMS 273 small cell lung) was greater than 100 µM, the TGI (LOX IMVI melanoma) was greater than 100 µM and the TGI (NCI-H522 lung) was greater than 100 µM. It also gave a TGI (SF-539 CNS) greater than 100 µM, a TGI (SNB-75 CNS) greater than 100 µM and a TGI (786-0 renal) greater than 100 µM. It also gave a TGI (SNB-78 CNS) greater than 100 µM, a TGI (SW-620 colon) greater than 100 µM and a TGI (HOP-62 NSCLC) greater than 100 µM. The TGI (SF-295 CNS) was greater than 100 µM, the TGI (HOP-92 NSCLC) was greater than 100 µM and the TGI (M14 melanoma) was greater than 100 µM. For the same molecule, the TGI (U251 CNS) was greater than 100 µM, the TGI (OVCAR-8 ovarian) was greater than 100 µM and the TGI (OVCAR-3 ovarian) was greater than 100 µM. It also gave a TGI (UO-31 renal) greater than 100 µM, a TGI (SR leukemia) greater than 100 µM and a TGI (HCC-2998 colon) greater than 100 µM. For the same molecule, the TGI (HCT-116 colon) was greater than 100 µM, the TGI (SNB-19 CNS) was greater than 100 µM and the TGI (COLO 205 colon) was greater than 100 µM. For the same molecule, the TGI (HT29 colon) was greater than 100 µM, the TGI (KM12 colon) was greater than 100 µM and the TGI (SF-268 CNS) was greater than 100 µM. It also gave a TGI (DLD-1 colon) greater than 100 µM, a TGI (OVCAR-4 ovarian) greater than 100 µM and a TGI (DMS 114 small cell lung) greater than 100 µM. For the same molecule, the TGI (NCI-H460 lung) was greater than 100 µM, the TGI (KM20L2 colon) was greater than 100 µM and the TGI (HL-60(TB) leukemia) was greater than 100 µM. The TGI (CAKI-1 renal) was greater than 100 µM, the TGI (LXFL 529 NSCLC) was greater than 100 µM and the TGI (SK-MEL-2 melanoma) was greater than 100 µM. For the same molecule, the TGI (UACC-257 melanoma) was greater than 100 µM and the TGI (OVCAR-5 ovarian) was greater than 100 µM.

`CCCCc1c2c(nc3c1CCC/C3=C\c1ccccc1)C(=O)CCC2` gave a TGI (NCI-H23 lung) of 58.7 µM, a TGI (CCRF-CEM leukemia) of 61.7 µM and a TGI (A549 NSCLC) of 62 µM. It also gave a TGI (SN12C renal) of 47.4 µM, a TGI (DMS 273 small cell lung) of 65.6 µM and a TGI (LOX IMVI melanoma) of 34.1 µM. It also gave a TGI (SK-OV-3 ovarian) of 67.2 µM, a TGI (NCI-H522 lung) of 29.5 µM and a TGI (SF-539 CNS) of 33.2 µM. The TGI (MALME-3M melanoma) was 52 µM, the TGI (SNB-75 CNS) was 84.5 µM and the TGI (M19-MEL melanoma) was 34.4 µM. The TGI (SK-MEL-5 melanoma) was 30.4 µM, the TGI (786-0 renal) was 60.9 µM and the TGI (SNB-78 CNS) was 52.5 µM. It also gave a TGI (HCT-15 colon) of 51.9 µM, a TGI (EKVX NSCLC) of 68.4 µM and a TGI (SW-620 colon) of 45 µM. The TGI (HOP-62 NSCLC) was 42 µM, the TGI (SK-MEL-28 melanoma) was 41.8 µM and the TGI (SF-295 CNS) was 40.3 µM. The TGI (HOP-18 NSCLC) was 79 µM, the TGI (HOP-92 NSCLC) was 58.7 µM and the TGI (M14 melanoma) was 41.9 µM. It also gave a TGI (NCI-H226 lung) of 45.3 µM, a TGI (U251 CNS) of 34 µM and a TGI (XF 498 CNS) of 33.2 µM. It also gave a TGI (OVCAR-8 ovarian) greater than 100 µM, a TGI (OVCAR-3 ovarian) of 33.4 µM and a TGI (ACHN renal) of 95.2 µM. It also gave a TGI (IGROV1 ovarian) of 42.5 µM, a TGI (UO-31 renal) of 61.8 µM and a TGI (SR leukemia) of 36.6 µM. It also gave a TGI (HCC-2998 colon) of 35.2 µM, a TGI (HCT-116 colon) of 39.5 µM and a TGI (K-562 leukemia) of 85.2 µM. It also gave a TGI (SNB-19 CNS) of 44.2 µM, a TGI (COLO 205 colon) of 48.6 µM and a TGI (HT29 colon) of 31.4 µM. The TGI (UACC-62 melanoma) was 44 µM, the TGI (MOLT-4 leukemia) was 43.4 µM and the TGI (TK-10 renal) was 72.4 µM. For the same molecule, the TGI (KM12 colon) was 51.8 µM, the TGI (SF-268 CNS) was 44.3 µM and the TGI (OVCAR-4 ovarian) was 67.9 µM. For the same molecule, the TGI (DMS 114 small cell lung) was 41.7 µM, the TGI (NCI-H460 lung) was greater than 100 µM and the TGI (A498 renal) was 61.4 µM. The TGI (KM20L2 colon) was 41.7 µM, the TGI (HL-60(TB) leukemia) was 74.3 µM and the TGI (LXFL 529 NSCLC) was greater than 100 µM. For the same molecule, the TGI (SK-MEL-2 melanoma) was 33.9 µM, the TGI (RPMI-8226 leukemia) was 45.4 µM and the TGI (RXF 393 renal) was 33 µM. For the same molecule, the TGI (UACC-257 melanoma) was 44.8 µM and the TGI (OVCAR-5 ovarian) was 43.1 µM.

`O=C(Nc1ccc(Cl)cc1Cl)C(=O)Nn1c(=S)[nH]c2ccccc2c1=O` showed a TGI (CCRF-CEM leukemia) greater than 100 µM, a TGI (RXF-631 renal) greater than 100 µM and a TGI (A549 NSCLC) greater than 100 µM. For the same molecule, the TGI (DMS 273 small cell lung) was greater than 100 µM, the TGI (SK-OV-3 ovarian) was greater than 100 µM and the TGI (NCI-H522 lung) was greater than 100 µM. It also gave a TGI (MALME-3M melanoma) greater than 100 µM, a TGI (M19-MEL melanoma) greater than 100 µM and a TGI (786-0 renal) greater than 100 µM. It also gave a TGI (SNB-78 CNS) greater than 100 µM, a TGI (HCT-15 colon) greater than 100 µM and a TGI (SK-MEL-28 melanoma) greater than 100 µM. For the same molecule, the TGI (HOP-18 NSCLC) was greater than 100 µM, the TGI (M14 melanoma) was greater than 100 µM and the TGI (U251 CNS) was greater than 100 µM. It also gave a TGI (OVCAR-3 ovarian) greater than 100 µM, a TGI (UO-31 renal) greater than 100 µM and a TGI (SR leukemia) greater than 100 µM. For the same molecule, the TGI (HCC-2998 colon) was greater than 100 µM, the TGI (HCT-116 colon) was greater than 100 µM and the TGI (K-562 leukemia) was greater than 100 µM. For the same molecule, the TGI (MOLT-4 leukemia) was greater than 100 µM, the TGI (SF-268 CNS) was greater than 100 µM and the TGI (DMS 114 small cell lung) was greater than 100 µM. The TGI (NCI-H460 lung) was greater than 100 µM, the TGI (HL-60(TB) leukemia) was greater than 100 µM and the TGI (LXFL 529 NSCLC) was greater than 100 µM. It also gave a TGI (SK-MEL-2 melanoma) greater than 100 µM, a TGI (RPMI-8226 leukemia) greater than 100 µM and a TGI (RXF 393 renal) greater than 100 µM.

From PubChem BioAssay (NCI)
